Reference: patent US20210335449A1, “Method or System for Identification of a Causative Mutation Causing a Phenotype of Interest in a Test Sample” (Oxford University Innovation Limited, priority 2018, published 2021)

Tested on: Marchantia polymorpha wild-type plants
Experiment: Chlorsulfuron resistance determination (survival two weeks after exposure to a lethal dose)
Format: in vivo
Conditions: 0.1 ppm dose (lethal dose); survival assessed two weeks following exposure
Procedure: Marchantia polymorpha spores were irradiated with ultraviolet B irradiation and seven independent mutant lines resistant to the herbicide chlorsulfuron were identified. Chlorsulfuron resistance was determined by a Marchantia polymorpha plant that was alive two weeks following exposure to a lethal dose of Chlorsulfuron (0.1 ppm dose, i.e. a dose sufficient to kill 100% of wild-type plants).

COc1nc(C)nc(NC(=O)NS(=O)(=O)c2ccccc2Cl)n1 [Chlorsulfuron]
wild-type plants killed: 100%
